From PMC4490117 (Pharmaceutical research, 2015)

Tests used:
[1] = T1 relaxation time by MRI phantom, 4.7 Tesla; type: physicochemical; conditions: same gadolinium concentration, Avg ± SD, n=3
[2] = system: subcutaneous flank SKOV-3 tumors; assay: T1-weighted MRI of tumor accumulation in tumor-bearing mice; type: in vivo, nu/nu mice; conditions: IV, gadolinium 0.072 mmoles/kg, SKOV-3 tumor-bearing mice, n=3

T1 Relaxivity [1]: 22 ms
time to clear from the tumor (T1-weighted images) ([2]; Figure 4A): ≤ 6 h
time to clear from tumor tissues (relative T1 signal, % tumor signal vs time) ([2]; Figure 4B): ≤ 5 h
Compound: CNC[C@H](O)[C@@H](O)[C@H](O)[C@H](O)CO.CNC[C@H](O)[C@@H](O)[C@H](O)[C@H](O)CO.O=C([O-])CN(CCN(CC(=O)[O-])CC(=O)O)CCN(CC(=O)[O-])CC(=O)O.[Gd+3] [Magnevist]
